Test results taken from patent US6525059B1, “Substituted pyrazoles as p38 kinase inhibitors” (G. D. Searle & Company, priority 1998, dated 2003).
Like-named read-outs stand apart in the source and are kept apart here.

Experiments:
TNF alpha = experiment: Mouse model of LPS-induced TNF alpha production; format: in vivo; details: mouse, oral, 1h before LPS, 30 mpk; read-out: mLPS 1h, 30 mpk percent inhibition
Protocol: TNF alpha was induced in 10-12 week old BALB/c female mice by tail vein injection with 100 ng lipopolysaccharide (from S. Typhosa) in 0.2 ml saline. One hour later mice were bled from the retroorbital sinus and TNF concentrations in serum from clotted blood were quantified by ELISA.
Efficacy was determined at each time point as percent inhibition of serum TNF levels relative to LPS injected mice that received vehicle only
wherein in the dose is milligram per kilogram (mpk) administered by oral gavage and the predose time indicates the number of hours before LPS challenge when the compound is administered.

TNF-α = experiment: LPS stimulation of TNF production by U937 cells; format: cell-based, human; details: Homo sapiens, U-937, LPS-stimulated U937 cells; read-out: U937 IC50
Method in brief: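 PMA-differentiated human U937 cells (20 ng/ml PMA, 24 h, then 24-48 h rest) at 2 million cells/ml, 0.1% DMSO final, stimulated with E. coli LPS (100 ng/ml final) for 4 h at 37° C. TNF-α in medium measured by ELISA; IC50 in μM.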

[1] = biological target: T1, human GST-p38 kinase alpha (Homo sapiens, UniProt Q16539); experiment: p38 kinase in vitro assay, second format, phosphorylation of EGFRP with 33P-ATP; format: biochemical; details: EGFRP assay procedure
T1 construct: The coding region of the human p38a cDNA was obtained by PCR-amplification from RNA isolated from the human monocyte cell line THP.1; made in house; host or cells: E. coli DH10B
Method in brief: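 Activated human GST-p38α (pre-activated with GST-MKK6, 1 h, 30 °C) phosphorylates EGFR 21-mer peptide (200 μM) with 50 μM ATP plus γ-33P-ATP, pH 7.5, 60 min at room temperature. Unreacted ATP removed by AG 1×8 resin; supernatant scintillation-counted.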

human p38 kinase alpha = biological target: T2, human p38 kinase alpha (Homo sapiens, UniProt Q16539); experiment: p38 kinase in vitro assay, phosphorylation of biotinylated PHAS-I with gamma 32P-ATP; format: biochemical; details: p38α in vitro, PHAS-I assay procedure; read-out: p38^1 IC50
T2 construct: The coding region of the human p38a cDNA was obtained by PCR-amplification from RNA isolated from the human monocyte cell line THP.1; GST (N); made in house; host or cells: E. coli DH10B
Method in brief: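 MKK6-activated human p38α phosphorylates biotinylated PHAS-I with γ-32P-ATP in 25 mM HEPES pH 7.5, 10 mM Mg acetate, 50 μM unlabeled ATP, 1% DMSO, 30 °C for 1 h or overnight. Compounds at 100–0.001 μM (10-fold steps, triplicate); substrate captured on streptavidin filter plates and counted by scintillation.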

[2] = p38α in vitro, read-out: p38^2 IC50

T1 sequence (Q16539 whole entry): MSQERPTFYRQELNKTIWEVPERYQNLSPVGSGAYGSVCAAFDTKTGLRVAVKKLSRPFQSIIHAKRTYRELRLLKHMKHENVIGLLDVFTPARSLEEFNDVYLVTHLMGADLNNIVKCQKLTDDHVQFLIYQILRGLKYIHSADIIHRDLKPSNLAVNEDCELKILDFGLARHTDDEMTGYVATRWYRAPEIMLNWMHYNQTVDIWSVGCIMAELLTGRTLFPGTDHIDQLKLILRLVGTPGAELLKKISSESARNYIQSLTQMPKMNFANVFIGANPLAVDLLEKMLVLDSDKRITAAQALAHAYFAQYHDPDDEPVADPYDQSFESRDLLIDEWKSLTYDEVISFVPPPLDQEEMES
T2 sequence (Q16539 whole entry): as above

`N#Cc1cc(-c2c[nH]nc2-c2ccc(F)cc2)ccn1` [Example A-215, 4-[3-(4-fluorophenyl)-1H-pyrazol-4-yl]-2-pyridinecarbonitrile] showed a melting point of 209.22 °C, an inhibition in vivo at 30 mg/kg (TNF alpha) of 80% and an IC50 (TNF-α) of 298 nM. For the same compound, the IC50 [1, 2] was 2340 nM.

In the case of `CC(Nc1cc(-c2c[nH]nc2-c2ccc(F)cc2)ccn1)c1ccc(F)cc1` (stereo not drawn) [Example A-253, N-[1-(4-fluorophenyl)ethyl]-4-[3-(4-fluorophenyl)-1H-pyrazol-4-yl]-2-pyridinamine], the inhibition in vivo at 30 mg/kg (TNF alpha) is reported as 61%, the IC50 (TNF-α) is reported as 4.4 nM and the IC50 [1, 2] is reported as < 1 nM.

`Cn1nc(-c2ccc(F)cc2)c(-c2ccncc2)c1Br` [Example A-214, 4-[5-bromo-3-(4-fluorophenyl)-1-methyl-1H-pyrazol-4-yl]pyridine] gave a melting point of 174.38 °C, an inhibition in vivo at 30 mg/kg (TNF alpha) of 70% and an IC50 [1, 2] of 60 nM.

In the case of `Fc1ccc(-c2n[nH]cc2-c2ccnc(-c3c[nH]nc3-c3ccc(F)cc3)c2)cc1` [Example A-265, 2,4-bis[3-(4-fluorophenyl)-1H-pyrazol-4-yl]pyridine], the inhibition in vivo at 30 mg/kg (TNF alpha) is reported as 32%, the IC50 (TNF-α) is reported as 602 nM and the IC50 [1, 2] is reported as < 100 nM.

For `Fc1ccc(-c2n[nH]cc2-c2ccnc(NCCn3ccnc3)c2)cc1` [Example A-268, 4-[3-(4-fluorophenyl)-1H-pyrazol-4-yl]-N-[2-(1H-imidazol-1-yl)ethyl]-2-pyridinamine], the inhibition in vivo at 30 mg/kg (TNF alpha) was 11%, the IC50 (TNF-α) was 7.4 nM and the IC50 [1, 2] was < 100 nM.

Work on `Cn1cc(-c2ccncc2)c(-c2ccc(F)cc2)n1` [Example A-212, 4-[3-(4-fluorophenyl)-1-methyl-1H-pyrazol-4-yl]pyridine] yielded an IC50 (human p38 kinase alpha) of 490 nM, an inhibition in vivo at 30 mg/kg (TNF alpha) of 93% and an IC50 (TNF-α) of 96.7 nM. It also gave an IC50 [1, 2] of 740 nM.

`Cn1cc(-c2ccncc2)c(-c2ccc3c(c2)OCO3)n1` [Example A-231, 4-[3-(1,3-benzodioxol-5-y)-1-methyl-1H-pyrazol-4-yl]pyridine] gave an inhibition in vivo at 30 mg/kg (TNF alpha) of 94%, an IC50 (TNF-α) of 322 nM and an IC50 [1, 2] of 174 nM.

`Cn1cc(-c2ccnc(F)c2)c(-c2ccc(F)c(F)c2)n1` [Example A-260, 4-[3-(3,4-difluorophenyl)-1-methyl-1H-pyrazol-4-yl]-2-fluoropyridine] gave an inhibition in vivo at 30 mg/kg (TNF alpha) of 79%, an IC50 (TNF-α) of 1280 nM and an IC50 [1, 2] of 230 nM.

`CN(C)CCn1cc(-c2ccnc(F)c2)c(-c2ccc(F)cc2)n1` [Example A-271, 3-(4-fluorophenyl)-4-(2-fluoro-4-pyridinyl)-N,N-dimethyl-1H-pyrazole-1-ethanamine] showed an inhibition in vivo at 30 mg/kg (TNF alpha) of 68%, an IC50 (TNF-α) of 4210 nM and an IC50 [1, 2] of 216 nM.

`Clc1ccc(-c2n[nH]cc2-c2ccncc2)cc1` [Example A-230, 4-[3-(4-chlorophenyl)-1H-pyrazol-4-yl]pyridine] gave an IC50 (human p38 kinase alpha) of 420 nM, an inhibition in vivo at 30 mg/kg (TNF alpha) of 96% and an IC50 [1, 2] of 178 nM.

For `CC[C@H](C)CNc1cc(-c2c[nH]nc2-c2ccc(Cl)cc2)ccn1` [Example A-245, (S)-4-[3-(4-chlorophenyl)-1H-pyrazol-4-yl]-N-(2-methylbutyl)-2-pyridinamine], the inhibition in vivo at 30 mg/kg (TNF alpha) was 65%, the IC50 (TNF-α) was 33.7 nM and the IC50 [1, 2] was < 1 nM.

`CN(C)CCn1cc(-c2ccncc2)c(-c2ccc(F)cc2)n1` [Example A-261, 3-(4-fluorophenyl)-N,N-dimethyl-4-(4-pyridinyl)-1H-pyrazole-1-ethanamine] gave an inhibition in vivo at 30 mg/kg (TNF alpha) of 92%, an IC50 (TNF-α) of 254 nM and an IC50 [1, 2] of 8 nM.

Compound `OCCn1cc(-c2ccnc(F)c2)c(-c2ccc(F)cc2)n1` [Example A-267, 3-(4-fluorophenyl)-4-(2-fluoro-4-pyridinyl)-1H-pyrazole-1-ethanol] has an inhibition in vivo at 30 mg/kg (TNF alpha) of 80%, an IC50 (TNF-α) of 2670 nM and an IC50 [1, 2] of 430 nM.

`OCCn1cc(-c2ccnc(/C=C/c3ccc(F)cc3)c2)c(-c2ccc(F)cc2)n1` [Example A-270, (E)-3-(4-fluorophenyl)-4-[2-[2-(4-fluorophenyl)ethenyl]-4-pyridinyl]-1H-pyrazole-1-ethanol] showed an inhibition in vivo at 30 mg/kg (TNF alpha) of 53%, an IC50 (TNF-α) of 347 nM and an IC50 [1, 2] of 15 nM.

For `FC(F)(F)c1cccc(-c2n[nH]cc2-c2ccncc2)c1` [Example A-237, 4-[3-[3-(trifluoromethyl)phenyl]-1H-pyrazol-4-yl]pyridine], the inhibition in vivo at 30 mg/kg (TNF alpha) was 60%, the IC50 (TNF-α) was 87 nM and the IC50 [1, 2] was 93 nM.

Work on `c1cc(-c2c[nH]nc2-c2ccc3c(c2)OCO3)ccn1` [Example A-228, 4-[3-(1,3-benzodioxol-5-yl)-1H-pyrazol-4-yl]pyridine] yielded an IC50 (human p38 kinase alpha) of 760 nM, an inhibition in vivo at 30 mg/kg (TNF alpha) of 92% and an IC50 (TNF-α) of 417 nM. It also gave an IC50 [1, 2] of 339 nM.

For `Cn1cc(-c2ccnc(CCc3ccc(F)cc3)c2)c(-c2ccc(F)cc2)n1` [Example A-262, 2-[2-(4-fluorophenyl)ethyl]-4-[3-(4-fluorophenyl)-1-methyl-1H-pyrazol-4-yl]pyridine], the inhibition in vivo at 30 mg/kg (TNF alpha) was 45%, the IC50 (TNF-α) was 327 nM and the IC50 [1, 2] was < 100 nM.

Work on `Fc1ccc(-c2nn(CCN3CCOCC3)cc2-c2ccncc2)cc1` [Example A-216, 4-[2-[3-(4-fluorophenyl)-4-(4-pyridinyl)-1H-pyrazol-1-yl]ethyl)morpholine] yielded an inhibition in vivo at 30 mg/kg (TNF alpha) of 91%, an IC50 (TNF-α) of 1830 nM and an IC50 [1, 2] of 18 nM.

For `Cn1cc(-c2ccncc2)c(-c2ccc(Br)cc2)n1` [Example A-243, 4-[3-(4-bromophenyl)-1-methyl-1H-pyrazol-4-yl]pyridine], the inhibition in vivo at 30 mg/kg (TNF alpha) was 82% and the IC50 [1, 2] was 729 nM.

With `Fc1ccc(-c2n[nH]cc2-c2ccnc(NC3CCN(Cc4ccccc4)CC3)c2)cc1` [Example A-263, 4-[3-(4-fluorophenyl)-1H-pyrazol-4-yl]-N-[1-(phenylmethyl)-4-piperidinyl]-2-pyridinamine] the IC50 (human p38 kinase alpha) was < 10 nM, the inhibition in vivo at 30 mg/kg (TNF alpha) was 49% and the IC50 (TNF-α) was 543 nM. For the same compound, the IC50 [1, 2] was < 100 nM.

`Cc1cnccc1-c1c[nH]nc1-c1ccc(F)cc1` [Example A-258, 4-[3-(4-fluorophenyl)-1H-pyrazol-4-yl]-3-methylpyridine] gave an inhibition in vivo at 30 mg/kg (TNF alpha) of 68%, an IC50 (TNF-α) of 1210 nM and an IC50 [1, 2] of 480 nM.

For `Brc1ccc(-c2n[nH]cc2-c2ccncc2)cc1` [Example A-241, 4-[3-(4-bromophenyl)-1H-pyrazol-4yl]pyridine], the inhibition in vivo at 30 mg/kg (TNF alpha) was 87% and the IC50 [1, 2] was 338 nM.

With `Cn1cc(-c2ccncc2)c(-c2ccc(I)cc2)n1` [Example A-251, 4-[3-(4-iodophenyl)-1-methyl-1H-pyrazol-4-yl]pyridine] the inhibition in vivo at 30 mg/kg (TNF alpha) was 87% and the IC50 [1, 2] was 637 nM.

Work on `c1ccc(-c2n[nH]cc2-c2ccncc2)cc1` [Example A-236, 4-(3-phenyl-1H-pyrazol-4-yl)pyridine] yielded an inhibition in vivo at 30 mg/kg (TNF alpha) of 94% and an IC50 ([1]; p38^2 IC50, p38α in vitro) of 237 nM.

`Cc1cnccc1-c1cn(C)nc1-c1ccc(F)cc1` [Example A-259, 4-[3-(4-fluorophenyl)-1-methyl-1H-pyrazol-4-yl]-3-methylpyridine] showed an inhibition in vivo at 30 mg/kg (TNF alpha) of 62%, an IC50 (TNF-α) of 757 nM and an IC50 [1, 2] of 170 nM.

Compound `Cn1cc(-c2ccncc2)c(-c2ccc(C(F)(F)F)cc2)n1` [Example A-252, 4-[1-methyl-3-[4-(trifluoromethyl)phenyl]-1H-pyrazol-4-yl]pyridine] has an inhibition in vivo at 30 mg/kg (TNF alpha) of 75%, an IC50 (TNF-α) of 1200 nM and an IC50 [1, 2] of 774 nM.
